# Values quoted from earlier work, collected in patent publication US20040033532A1, “Use of three-dimensional crystal structure coordinates to design and synthesize domain-selective inhibitors for angiotensin-converting enzyme (ACE)” (priority 2002, published 2004).
# Entries after “also recorded” stand apart in the source; their conditions may differ. Like-named read-outs stand apart in the source and are kept apart here.
# Assays:
# [1] = tested on: ACE N domain and C domain active sites; conditions: N domain vs C domain
# ACE = ACE (Homo sapiens, UniProt P12821)
# rabbit liver ACE = target: T1, rabbit liver ACE (Oryctolagus cuniculus, UniProt P12822)
# T1 construct: rabbit liver ACE in vitro; from tissue; host or cells: rabbit liver
# T1 sequence (P12822 34-1310): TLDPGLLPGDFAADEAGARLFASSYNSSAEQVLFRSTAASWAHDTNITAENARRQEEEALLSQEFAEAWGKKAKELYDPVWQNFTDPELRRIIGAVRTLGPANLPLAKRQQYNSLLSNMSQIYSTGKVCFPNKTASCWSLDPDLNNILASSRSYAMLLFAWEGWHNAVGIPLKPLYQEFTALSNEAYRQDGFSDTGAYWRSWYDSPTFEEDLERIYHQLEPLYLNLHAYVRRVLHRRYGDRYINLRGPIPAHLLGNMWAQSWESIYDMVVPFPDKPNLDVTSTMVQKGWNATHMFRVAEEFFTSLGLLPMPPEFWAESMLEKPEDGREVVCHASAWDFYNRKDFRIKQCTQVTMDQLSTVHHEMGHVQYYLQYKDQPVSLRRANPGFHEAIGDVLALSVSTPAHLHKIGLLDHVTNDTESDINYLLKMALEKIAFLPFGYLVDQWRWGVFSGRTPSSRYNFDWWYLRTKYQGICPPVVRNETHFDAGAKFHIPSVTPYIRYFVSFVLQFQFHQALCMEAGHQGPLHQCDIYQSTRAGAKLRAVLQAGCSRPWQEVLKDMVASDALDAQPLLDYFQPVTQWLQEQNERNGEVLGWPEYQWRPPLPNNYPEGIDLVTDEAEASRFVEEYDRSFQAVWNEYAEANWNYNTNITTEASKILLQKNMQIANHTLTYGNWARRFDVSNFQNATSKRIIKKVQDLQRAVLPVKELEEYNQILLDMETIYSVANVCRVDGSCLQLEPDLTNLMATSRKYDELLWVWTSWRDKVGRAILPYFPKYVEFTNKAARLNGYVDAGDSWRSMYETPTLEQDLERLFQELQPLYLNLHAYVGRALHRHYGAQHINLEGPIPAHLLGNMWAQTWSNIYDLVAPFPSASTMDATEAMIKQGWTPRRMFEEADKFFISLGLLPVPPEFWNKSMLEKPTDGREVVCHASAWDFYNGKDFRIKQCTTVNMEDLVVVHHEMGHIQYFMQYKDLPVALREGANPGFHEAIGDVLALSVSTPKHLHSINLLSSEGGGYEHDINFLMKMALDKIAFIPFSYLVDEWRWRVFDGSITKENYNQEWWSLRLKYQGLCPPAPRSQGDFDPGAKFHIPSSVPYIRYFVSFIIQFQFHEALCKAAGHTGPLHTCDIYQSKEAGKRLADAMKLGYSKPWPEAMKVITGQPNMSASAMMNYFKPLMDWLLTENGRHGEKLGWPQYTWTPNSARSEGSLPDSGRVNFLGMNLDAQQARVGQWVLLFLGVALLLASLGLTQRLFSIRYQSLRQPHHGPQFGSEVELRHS
# Sequence of ACE (P12821 30-1306, species assumed): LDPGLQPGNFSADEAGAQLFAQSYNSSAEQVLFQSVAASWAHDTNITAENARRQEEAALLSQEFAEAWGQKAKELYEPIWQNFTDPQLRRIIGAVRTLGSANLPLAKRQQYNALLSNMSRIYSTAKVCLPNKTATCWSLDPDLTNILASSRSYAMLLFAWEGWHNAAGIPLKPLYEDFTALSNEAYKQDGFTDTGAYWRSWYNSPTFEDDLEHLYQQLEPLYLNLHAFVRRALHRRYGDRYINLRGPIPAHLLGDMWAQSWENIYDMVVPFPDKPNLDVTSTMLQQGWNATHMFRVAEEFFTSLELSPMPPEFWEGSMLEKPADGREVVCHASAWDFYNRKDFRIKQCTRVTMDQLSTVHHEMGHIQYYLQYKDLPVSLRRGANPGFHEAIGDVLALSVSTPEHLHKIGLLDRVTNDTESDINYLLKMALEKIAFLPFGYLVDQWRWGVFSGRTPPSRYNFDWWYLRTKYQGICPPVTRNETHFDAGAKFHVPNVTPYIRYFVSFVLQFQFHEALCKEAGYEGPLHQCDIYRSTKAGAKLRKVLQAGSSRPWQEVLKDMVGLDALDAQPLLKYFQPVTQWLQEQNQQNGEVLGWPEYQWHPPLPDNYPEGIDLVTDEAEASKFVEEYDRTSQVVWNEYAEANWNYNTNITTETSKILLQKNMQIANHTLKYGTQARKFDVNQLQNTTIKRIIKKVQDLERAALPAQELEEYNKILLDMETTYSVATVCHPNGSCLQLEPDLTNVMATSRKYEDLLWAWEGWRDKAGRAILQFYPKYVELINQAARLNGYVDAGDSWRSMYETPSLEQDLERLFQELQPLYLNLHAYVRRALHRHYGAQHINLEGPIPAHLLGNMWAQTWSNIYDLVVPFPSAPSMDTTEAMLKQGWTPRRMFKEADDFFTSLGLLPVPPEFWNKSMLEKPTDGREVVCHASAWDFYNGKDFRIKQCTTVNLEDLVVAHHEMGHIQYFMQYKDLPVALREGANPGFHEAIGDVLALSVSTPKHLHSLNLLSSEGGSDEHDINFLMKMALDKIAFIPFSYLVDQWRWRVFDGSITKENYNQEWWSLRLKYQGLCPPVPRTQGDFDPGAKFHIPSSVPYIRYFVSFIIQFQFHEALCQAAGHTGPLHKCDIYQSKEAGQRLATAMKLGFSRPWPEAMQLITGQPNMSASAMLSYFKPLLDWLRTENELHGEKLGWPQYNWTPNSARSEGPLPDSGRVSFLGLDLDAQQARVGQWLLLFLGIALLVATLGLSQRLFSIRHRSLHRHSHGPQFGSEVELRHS
compound,measurement,setting,value
Ac-Asp-Phe-Ψ(PO2—CH2)-Ala-Ala-NH2,domain selectivity of ACE inhibition (in words),[1],far better inhibitor of the N domain
same,domain selectivity of ACE inhibition (in words),[1]; listed as Ac-Asp-Phe-Ψ(PO2—CH2)-Ala-Ala,far better inhibitor of the N-domain
"Angiotensin (1-7) [Asp^1-Pro^7] (DRVYIHP; Angiotensin 1-7; UniProt P01019 25-31, looked up, fragment) [peptide Asp1-Pro7 of angiotensin]",domain selectivity of ACE inhibition (in words),[1],more effective inhibitors of the C domain
"O=C(N[C@@H](Cc1ccccc1)C(=O)CCC(=O)N1CCC[C@H]1C(=O)O)c1ccccc1 [keto-ACE, Bz-Phe Ψ (CO—CH2)Gly-Pro]",domain selectivity of ACE inhibition (in words),[1],more effective inhibitors of the C domain; also recorded: C-domain specific inhibitor
CN(CC(=O)NO)C(=O)[C@@H]1CCCC[C@@H]1C(=O)O [Compound 2],IC50,ACE; Hip-Gly-Gly as substrate,7 nM
same,Ki,ACE; competitive inhibitor of ACE,2.7 ± 0.2 nM
C[C@H](NC(=O)/C=C/c1ccccc1)C(=O)N1CCC[C@H]1C(=O)O [Compound 1],IC50,"rabbit liver ACE; Hip-His-Leu hydrolysis, rabbit liver ACE, in vitro",230000 nM
same,enzyme activity remaining,rabbit liver ACE; after 10 minutes of incubation with 0.4 mM of inhibitor,~50%
same,recovery of enzyme activity after dialysis,rabbit liver ACE; after dialysis,could not be recovered
